Results from US10316000B2, “Coupled recognition/detection system for in vivo and in vitro use” (Cornell University, priority 2009, dated 2019).
“Also recorded” adds a separate entry of the source.

Legend:
HEK 293 cells = assay: Non-specific fluorescence of dyes in HEK 293 cells; assay type: cell-based; conditions: for non-specific fluorescence in cells: 10 μM, epifluorescent microscope
Experimental: Previous studies to utilize conditionally fluorescent RNA binding dyes had focused on triphenylmethane scaffold dyes such as malachite green. However, these studies were halted by the discovery that many of these conditionally fluorescent dyes could interact with cellular components causing the cells to nonspecifically fluoresce. To determine whether the fluorophores of the present invention would be nonspecifically fluorescent in cells, HEK 293 cells were incubated with 10 μM DMHBI and visualized using an epifluorescent microscope.

[1] = cited from earlier work; for emission maxima: literature values
[2] = Phenolic pKa and phenol/phenolate absorbance of fluorophores; assay type: physicochemical; conditions: for pKa: phenolic proton of free fluorophore
Experimental: The pKa of DFHBI was calculated using the presence of the distinct phenol and phenolate absorbance peaks. […] This dramatic reduction in […] would ensure that a majority of fluorophore molecules would now be in the phenolate form at physiological pH.

[3] = Fluorescence of free fluorophore (ethanol glass, glycerol viscosity); assay type: physicochemical
From the text: In GFP, the chromophore is held inside the protein β-barrel structure and rigidified by direct interactions with over a dozen amino acid residues (FIG. 1C). This inflexible positioning of the chromophore by the protein is the reason for its large fluorescent quantum yield. Similarly, the synthetic GFP chromophores 4-hydroxybenzilidene-1,2-dimethyl-imidazol-5-one (“HBDI”) is capable of bright fluorescence only when rigidified by solidified solvents (Niwa et al., “Chemical Nature of the Light Emitter of the Aequorea Green Fluorescent Protein,” Proc. Nat'l Acad. Sci. USA 93:13617-13622 (1996), which is hereby incorporated by reference in its entirety). […] As an initial experiment DMHBI was first dissolved in ethanol and frozen in liquid nitrogen to create an ethanol glass matrix.
To more precisely determine the effect of immobilization on DMHBI fluorescence, 10 μM DMHBI in aqueous buffer was prepared and its fluorescence spectrum was measured in increasing concentrations of glycerol. Because glycerol is known to affect the viscosity of aqueous solutions in a predictable manner, the effect of increasing viscosity on DMHBI fluorescence can be readily measured. An increase in fluorescence intensity with increasing concentrations of glycerol was observed (FIG. 2B).
This is in agreement with previously reported data of the fluorescence spectrum of synthetic GFP chromophore, which is incapable of the excited-state proton transfer reaction that is responsible for green emission spectra found in the GFP protein. […] The reason for this is that the phenolic moiety of the chromophore remains protonated at neutral pH and in the context of the original protein. Deprotonation to the phenolate results in an excitation maxima at ˜475 nm.
Additionally, DFHBI was nonfluorescent when administered to HEK 293 cells, proving its utility for methods involving live cells.

[4] = Fluorescence of aptamer-DFHBI complexes; assay type: biochemical; conditions: unchanged between unbound and bound fluorophore
From the text: The addition of the fluoro groups appeared to cause a slight blue shift in the fluorescence with excitation and emission maxima at 460 nm and 500 nm, respectively (FIG. 12A). […] Thus, further characterization was only carried out on these two brightest clones. […] This increased brightness derived mainly from an increase in the quantum yield from 0.08 for DMHBI-RNA complexes to over 0.6 for DFHBI-RNA complexes. The extinction coefficient for DFHBI remained unchanged between unbound and bound fluorophore: 26,000 M^−1cm^−1.
Equimolar solutions of 24-1-DFHBI complex and eGFP were prepared to measure their relative fluorescence intensity. […] Mg^2+ ion requirement, on the other hand, is much greater for 24-1 and 24-2 than for 13-2 (FIG. 12D). Both 24-1 and 24-2 are optimally fluorescent at 25 mM MgCl2 with only a subtle decrease when the concentration is dropped to 5 mM (the concentration used for SELEX). However, dropping MgCl2 concentration from 5 mM to a more physiological concentration of 0.5 mM results in a 50% drop in fluorescence for both aptamers. Further decreasing the MgCl2 concentration completely abolishes 24-1 fluorescence at ˜0.01 mM, while 24-2 levels out at ˜45% intensity at 0.01 mM MgCl2.

[5] = Dissociation constant of aptamer-DMHBI complexes by fluorescence titration; assay type: binding
From the text: The first step in characterizing the interaction between fluorescence-inducing aptamers of DMHBI was to determine their binding affinities. Because binding of the RNA to DMHBI results in fluorescence, the dissociation constant (Kd) was obtained by titrating increasing amounts of DMHBI to a solution of the aptamer. To correct for any increases in DMHBI background fluorescence, measurements of DMHBI alone at the same concentrations were taken and subtracted from the binding data. These measurements were then used to extrapolate RNA-fluorophore dissociation constants. DMHBI bound to both 3-6 and 13-2 with roughly equal dissociation constants of 500 nM (FIG. 5A).

aptamer 13-2 = assay: Quantum yield, extinction coefficient and brightness of DMHBI alone and with aptamer 13-2; assay type: physicochemical
Experimental: Lucifer Yellow and Cascade Yellow, two fluorophores with known quantum yields, were used as standards and the relative slope changes in the curve depicting absorbance vs. total fluorescence were compared. Values were calculated for DMHBI alone and DMHBI with aptamer 13-2 to identify the underlying reason for fluorescence increase. […] Quantum yield, however, increased enormously from 0.0006 for DMHBI alone to 0.08 for the aptamer-DMHBI complex—an over 100-fold increase. Total brightness, measured as the product of extinction coefficient and quantum yield, went from 0.008 to 1.23 (150-fold). […] More importantly, the fold-increases in both quantum yield and brightness are more than sufficient for detection of the aptamer-fluorophore complex.

[6] = ATP-dependent fluorescent sensor from aptamer 13-2 with DMHBI; assay type: biochemical
From the text: FIGS. 22A-B illustrate the design of a fluorescent ATP sensor using aptamer 13-2. FIG. 22A illustrates how aptamer 13-2 (nt 4-60 of SEQ ID NO: 3, structure from mFOLD, left) was modified by fusing it to a previously-described ATP-aptamer (see structure on right). An unstable stem was fused from the ATP aptamer to 13-2 at the stem A entry point, generating the sensor of SEQ ID NO: 62. FIG. 22B confirms that the fused aptamer construct can be used as an ATP-dependent fluorescent sensor. In the absence of ATP, there is minimal fluorescence, even in the presence of DMHBI (lower curve). However, after addition of 1 mM ATP, the fluorescence increases nearly 30-fold (upper curve).
The mutagenesis studies described in Example 8 confirmed that stem loop A of aptamer 13-2 (see FIG. 22A) could be mutated as long as a stem-forming sequence was retained. Using the same approach identified in Example 17 (for aptamer 24-1), stem-loop A was used as an entry point for introducing an ATP aptamer along with stem destabilization.

[7] = highly viscous solutions, pH 7.4

CN(C)c1ccc(C(=C2C=CC(=[N+](C)C)C=C2)c2ccccc2)cc1 [malachite green, reference compound]
non-specific fluorescence in cells (HEK 293 cells): intensely fluorescent; also recorded: cells turn fluorescent

4-hydroxybenzylidene-1-methyl-2-penta-1,3-dien-1-yl-imidazolinone [reference compound]
emission maxima [1]: 523 nm

CC1=N/C(=C\c2ccccc2O)C(=O)N1C [o-HBDI, 4-(2-hydroxybenzylidene)-1,2-dimethyl-imidazol-5-one]
emission maxima [1]: 605 nm
pKa [2]: ~10

CC1=N/C(=C\c2cc(F)c(O)c(F)c2)C(=O)N1C [DFHBI, 4-(3,5-difluoro-4-hydroxybenzylidene)-1,2-dimethyl-imidazol-5-one]
fluorescence in ethanol glass and at high glycerol concentrations [3]: robustly fluorescent
fluorescence in non-viscous solutions [3]: negligible fluorescence
fluorescence when administered to cells (HEK 293 cells): nonfluorescent
absorbance maximum, phenol [2]: 363 nm
absorbance maximum, phenolate [2]: 420 nm
pKa [2]: ~6
extinction coefficient [4]: 26,000 M^−1cm^−1

COc1cc(/C=C2\N=C(C)N(C)C2=O)cc(OC)c1O [DMHBI, 4-(4-hydroxy-3,5-dimethoxybenzylidene)-1,2-dimethyl-imidazol-5-one]
fluorescence in glycerol ([3]; 10 μM in aqueous buffer, 20% glycerol): very limited fluorescence
fluorescence in ethanol glass ([3]; frozen in liquid nitrogen, 77° K): dramatic fluorescent enhancement; also recorded: brilliantly fluorescent
emission peak [3, 7]: 460 nm
excitation peak [3, 7]: 400 nm
fluorescence in ethanol ([3]; room temperature): nonfluorescent; also recorded: non-fluorescent
Kd ([5]; aptamer not named, read-out: Kd of the complex (RNA-bound DMHBI)): 500 nM
dissociation τ1/2 ([5]; inferred from Kd assuming diffusion-limited association rates): < 0.1 s
non-specific fluorescence in cells (HEK 293 cells): no increase in background fluorescence; also recorded: No non-specific fluorescence
quantum yield (aptamer 13-2; DMHBI alone): 0.0006
total brightness (product of extinction coefficient and quantum yield) (aptamer 13-2; DMHBI alone): 0.008
molar extinction coefficient (aptamer 13-2; DMHBI bound by aptamer 13-2): 15,358 M^−1cm^−1
quantum yield (aptamer 13-2; aptamer-DMHBI complex): 0.08
total brightness (product of extinction coefficient and quantum yield) (aptamer 13-2; aptamer-DMHBI complex): 1.23
increase in quantum yield (aptamer 13-2; complex vs DMHBI alone): over 100 fold
increase in total brightness (aptamer 13-2; complex vs DMHBI alone): 150 fold
molar extinction coefficient (aptamer 13-2; unbound DMHBI): 13,164 M^−1cm^−1
fraction deprotonated ([2]; pH 8): ~50%

B1: DsRed: bright red fluorescent protein from coral (Discosoma spp.) (protein, UniProt Q9U6Y8 1-225, looked up)
Red fluorescent protein …: MRSSKNVIKEFMRFKVRMEGTVNGHEFEIEGEGEGRPYEGHNTVKLKVTKGGPLPFAWDILSPQFQYGSKVYVKHPADIPDYKKLSFPEGFKWERVMNFEDGGVVTVTQDSSLQDGCFIYKVKFIGVNFPSDGPVMQKKTMGWEASTERLYPRDGVLKGEIHKALKLKDGGHYLVEFKSIYMAKKPVQLPGYYYVDSKLDITSHNEDYTIVEQYERTEGRHHLFL
excitation maxima ([1]; literature value): 558 nm
emission maxima [1]: 583 nm

B2: sensor of SEQ ID NO: 62: aptamer 13-2 fused via modified stem A to an ATP-binding aptamer, used with DMHBI (nucleic acid)
chain: CUAUUUCUGGAGGGGCGCUACUGUGUGGGAAGAAACUGUGGCACUUCGGUGCCAGCGUAUGGGUGGUUGGGUGCGGUCGGAGAUAGCUCGAGCAAUGC
modifications: listed as RNA, further chemistry not given here
fluorescence increase after addition of ATP ([6]; 1 mM ATP, DMHBI present): ~30 fold
molar fluorescence intensity relative to 13-2 parent aptamer ([6]; ATP-bound): ~20%
